Results: paper PMC10215404, “Effect of Indole-Containing Pyrazino[2,1-b]quinazoline-3,6-diones in the Virulence of Resistant Bacteria” (Antibiotics, 2023)
Converted amounts (≈) assume the structure as drawn. “And” between values parts separate entries of the source, which are not always exact repeats. Equal entries are not always repeated.

Tests used:
[1] = tested on: E. coli AG100A; assay: Real-time ethidium bromide accumulation assay (efflux pump inhibition); conditions: compound at 50 μM, minute 60
[2] = tested on: S. aureus 272123; assay: as above; conditions: minute 60
[3] = tested on: S. aureus MRSA 272123; assay: MIC determination, broth microdilution; assay type: cell-based; conditions: Staphylococcus aureus
Text: Both reference and resistant strains used in this work were employed by our group for the screening of different families of compounds, such as xanthones and thioxanthones.

[4] = tested on: E. coli AG100; assay: Real-time ethidium bromide accumulation assay (efflux pump inhibition); conditions: compound at 50 μM, minute 60
[5] = tested on: E. coli AG100; assay: Biofilm formation, crystal violet method; assay type: cell-based, Escherichia coli; conditions: 50 μM
Description: The antibiofilm effect of the tested compounds was evaluated using the crystal violet method on E. coli AG100, E. coli AG100A, and MRSA 272123. […] CCCP was used as a positive control.
The biofilm-forming ability of the S. aureus strains was studied in 96-well microtiter plates using TSB broth in the presence of compounds. The biofilm-forming ability of the E. coli strains was studied in 96-well microtiter plates using LB broth in the presence of the compounds. […] The final volume was 200 μL in each well. The positive control was CCCP at 50 µM. Plates were incubated for 48 h at 30 °C with gentle shaking at 100 rpm. After the incubation period, the medium was removed and the plate was washed with water to remove unattached cells. A total of 200 μL CV (0.1% [v/v]) was added to each wells and incubated for 15 min at room temperature. CV was discarded from the wells and the plate was washed with water again. Then, 200 μL of 70% ethanol was added to each well and the biofilm formation was determined by measuring the OD at 600 nm using a Multiscan EX ELISA plate reader (Thermo Labsystems, Cheshire, WA, USA). The antibiofilm effect of the compounds was expressed as the percentage (%) decrease in biofilm formation.

[6] = tested on: NIH/3T3 mouse fibroblast cell line; assay: Cytotoxicity assay (MTT); assay type: cell-based; conditions: NIH3T3, 24 h
Description: The effects of increasing concentrations of compounds on cell growth were tested in 96-well flat-bottomed microtiter plates. The compounds were diluted in a volume of 100 μL of medium. Afterwards, 1 × 10^4 cells in 100 μL of medium were added to each well, with the exception of the medium control. In the case of NIH/3T3 cells, the compounds were added after seeding the cells at 37 °C overnight. The plates were incubated at 37 °C for 24 h; after the incubation period, 20 μL of MTT solution (from a 5 mg/mL stock) was added to each well. After 4 h of incubation at 37 °C, 100 μL of SDS solution (10% in 0.01 M HCl) was added to each well and the plates were incubated at 37 °C overnight. Cell growth was determined by measuring the optical density (OD) at 540 nm (ref. 630 nm) with a Multiscan EX ELISA reader. Inhibition of cell growth was determined as IC50 values, defined as the inhibitory dose that reduced the growth of the cells exposed to the tested compounds by 50%. IC50 values and the SD of triplicate experiments were calculated by using GraphPad Prism software version 5.00 for Windows with a nonlinear regression curve fit (GraphPad Software, San Diego, CA, USA; www.graphpad.com, accessed on 14 July 2022). Doxorubicin (from a 2 mg/mL stock solution, Teva Pharmaceuticals) was used as the positive control.

[7] = tested on: phytopathogenic fungi; set-up: method as in PMID 22409377; conditions: several phytopathogenic fungi; cited from earlier work
[8] = tested on: Enterococcus faecalis; conditions: E. faecalis B3/101; cited from earlier work
[9] = tested on: E. faecalis B3/101; assay: Antibiotic potentiation with vancomycin, broth microdilution; conditions: Enterococcus faecalis, B3/101, read-out: MIC of vancomycin alone obtained in this study

SMILES | RFI ± SD [1] | RFI ± SD ([2]; compound at 50 μM) | MIC [3] | RFI ± SD [4] | other results
CC(C)C[C@@H]1NC(=O)[C@@H](Cc2c[nH]c3ccccc23)n2c1nc1ccc(Br)cc1c2=O [Compound 13b] | 0.12 ± 0.05 | 1.53 ± 0.02 | > 100 µM | 0.52 ± 0.18 | 
Cc1ccc2nc3n(c(=O)c2c1)[C@H](Cc1c[nH]c2ccccc12)C(=O)N[C@H]3C(C)C [Compound 13c] | 0.13 ± 0.05 | 0.94 ± 0.04 | 100 µM and 40 µg/mL | 0.17 ± 0.02 | 
O=C1N[C@@H](Cc2ccc(OCc3ccccc3)cc2)c2nc3c(Cl)cc(Cl)cc3c(=O)n2[C@@H]1Cc1c[nH]c2ccccc12 [Compound 13d] | 0.55 ± 0.29 | 0.19 ± 0.08 | > 100 µM | −0.01 ± 0.03 | decrease in biofilm formation [5]: 61%
COc1cccc2c1C(=O)c1c(O)c3c(c(O)c1C2=O)C[C@@](O)(C(=O)CO)C[C@@H]3O[C@H]1C[C@H](N)[C@H](O)[C@H](C)O1 [DOXO, Doxorubicin, reference compound] |  |  |  |  | IC50 [6]: 3.72 ± 0.15 µM
COC(=O)[C@H]1[C@H]2C[C@@H]3c4[nH]c5cc(OC)ccc5c4CCN3C[C@H]2C[C@@H](OC(=O)c2cc(OC)c(OC)c(OC)c2)[C@@H]1OC [RES, reserpine, reference compound] |  |  |  |  | RFI ± SD ([2]; compound at 25 μM): 0.68 ± 0.05
C[C@@H]1N[C@H]2N(C1=O)c1ccccc1[C@@]2(O)C[C@@H]1C(=O)N[C@@H](C)c2nc3ccccc3c(=O)n21 [fumiquinazoline A] |  |  |  |  | MIC [7]: 12.5 to 25 µg/mL
C[C@H]1NC(=O)[C@@H](Cc2c[nH]c3ccccc23)n2c1nc1ccccc1c2=O [fumiquinazoline G] |  |  |  |  | MIC [7]: 12.5 to 25 µg/mL
CN[C@H](CC(C)C)C(=O)N[C@H]1C(=O)N[C@@H](CC(N)=O)C(=O)N[C@H]2C(=O)N[C@H]3C(=O)N[C@H](C(=O)N[C@H](C(=O)O)c4cc(O)cc(O)c4-c4cc3ccc4O)[C@H](O)c3ccc(c(Cl)c3)Oc3cc2cc(c3O[C@@H]2O[C@H](CO)[C@@H](O)[C@H](O)[C@H]2O[C@H]2C[C@](C)(N)[C@H](O)[C@H](C)O2)Oc2ccc(cc2Cl)[C@H]1O [vancomycin, reference compound] |  |  |  |  | MIC [8]: 1024 µg/mL (≈ 707 µM); MIC [9]: 516 µg/mL
